Measurements: patent publication US11285156B2, “Substituted piperazines as KRAS G12C inhibitors” (Amgen Inc., priority 2018, dated 2022)
Where two headings read alike, the source gives them in different places.

Assays:
[1] = tested on: Phosphorylation of ERK1/2 in MIA PaCa-2 cells; assay: Phospho-ERK1/2 MSD assay in MIA PaCa-2 cells; type: cell-based; conditions: read-out: p-ERK IC50 (2 h, MiaPaCa-2; μM), 2 h compound treatment, MIA PaCa-2 cells, EGF stimulated
In short: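 Phospho-ERK1/2 measured by MSD electrochemiluminescence kit in RIPA lysates of MIA PaCa-2 cells. Cells were treated with compound titrations for 2 or 4 h at 37 °C, 5% CO2, followed by a 10 min pulse of 10 ng/mL EGF.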

[2] = tested on: Phosphorylation of ERK1/2 in A549 cells; assay: Phospho-ERK1/2 MSD assay in A549 cells; type: cell-based; conditions: Homo sapiens, A549, 2 h, read-out: p-ERK IC50 (2 h, A549; μM), 2 h compound treatment, A549 cells, EGF stimulated
In short: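 Dose-response treatment lasted 2 or 4 h in RPMI 1640/10% FBS at 37 °C. EGF-stimulated (10 ng/mL, 10 min) ERK1/2 phosphorylation was then quantified in cell lysates with a Meso Scale Discovery phospho-ERK1/2 assay.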

[3] = target: GDP-bound KRAS protein (aa 1-169), containing both G12C and C118A amino acid substitutions (Homo sapiens (Human), UniProt P01116, C118A/G12C); assay: Coupled nucleotide exchange assay (SOS-mediated nucleotide exchange, AlphaScreen); type: biochemical; conditions: 5 min compound pre-incubation; for IC50: read-out: Coupled exchange IC50 (5 min; μM)
Sequence of GDP-bound KRAS protein (aa 1-169), containing both G12C and C118A amino acid substitutions (P01116 other isoform, or with tags, fused parts or gaps G12C/C118A): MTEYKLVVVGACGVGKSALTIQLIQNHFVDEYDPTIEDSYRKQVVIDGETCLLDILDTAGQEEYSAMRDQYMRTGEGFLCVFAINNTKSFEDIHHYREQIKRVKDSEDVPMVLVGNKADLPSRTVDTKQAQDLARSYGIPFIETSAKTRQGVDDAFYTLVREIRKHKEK

Compound | IC50 ([1]; Homo sapiens, MIA PaCa-2, 2 h) | IC50 [2] | IC50 [3] | IC50 [1] | Coupled exchange IC50 (5 min; μM) [3]
C=CC(=O)N1C[C@@H](C)N(c2nc(=O)n(-c3c(C(C)C)ncnc3C(C)C)c3nc(-c4ccccc4F)c(F)cc23)[C@@H](C)C1 [Example 101-3, 1-(4,6-Diisopropylpyrimidin-5-yl)-4-[(2R,6S)-2,6-dimethyl-4-prop-2-enoyl-piperazin-1-yl]-6-fluoro-7-(2-fluorophenyl)pyrido [2,3-d]pyrimidin-2-one] | 0.208 µM | > 7.5 µM | 0.195 µM |  | 
C=CC(=O)N1C[C@H](C)N(c2nc(=O)n(-c3c(Cl)ncnc3C(C)C)c3nc(-c4ccccc4F)c(Cl)cc23)C[C@H]1C [Example 102-5, 6-Chloro-1-(4-chloro-6-isopropyl-pyrimidin-5-yl)-4-[(2S,5R)-2,5-dimethyl-4-prop-2-enoyl-piperazin-1-yl]-7-(2-fluorophenyl) pyrido[2,3-d]pyrimidin-2-one] |  | > 7.5 µM | 0.071 µM | 0.084 µM | 
C=CC(=O)N1C[C@H](C)N(c2nc(=O)n(-c3c(Cl)ncnc3C(C)C)c3nc(-c4ccccc4C)c(Cl)cc23)C[C@H]1C [Example 102-6, 6-Chloro-1-(4-chloro-6-isopropyl-pyrimidin-5-yl)-4-[(2S,5R)-2,5-dimethyl-4-prop-2-enoyl-piperazin-1-yl]-7-(o-tolyl)pyrido[2,3-d]pyrimidin-2-one] | 0.063 µM | > 7.5 µM | 0.066 µM |  | 
C=CC(=O)N1C[C@H](C)N(c2nc(=O)n(-c3c(N(C)C)ccnc3C(C)C)c3nc(-c4ccccc4C(C)C)c(Cl)cc23)C[C@H]1C [Example 103-1, 4-((2S,5R)-4-Acryloyl-2,5-dimethylpiperazin-1-yl)-6-chloro-1-(4-(dimethylamino)-2-isopropylpyridin-3-yl)-7-(2-isopropylphenyl)pyrido[2,3-d]pyrimidin-2(1H)-one] |  | > 7.5 µM | 0.105 µM | 0.107 µM | 
C=CC(=O)N1C[C@H](C)N(c2nc(=O)n(-c3c(C(C)C)ncn(C)c3=O)c3nc(-c4ccccc4F)c(Cl)cc23)C[C@H]1C [Example 103-2, 6-Chloro-4-[(2S,5R)-2,5-dimethyl-4-prop-2-enoyl-piperazin-1-yl]-7-(2-fluorophenyl)-1-(4-isopropyl-1-methyl-6-oxo-pyrimidin-5-yl)pyrido[2,3-d]pyrimidin-2-one] | 0.04 µM | > 7.5 µM | 0.084 µM |  | 
C=CC(=O)N1C[C@H](C)N(c2nc(=O)n(-c3c(C(C)C)cccc3[S+](C)[O-])c3nc(-c4ccccc4F)c(Cl)cc23)C[C@H]1C (stereo partly drawn) [Example 103-3, 4-((2S,5R)-4-acryloyl-2,5-dimethylpiperazin-1-yl)-6-chloro-7-(2-fluorophenyl)-1-(2-isopropyl-6-(methylsulfinyl)phenyl)pyrido[2,3-d]pyrimidin-2(1H)-one] | 0.143 µM | > 7.5 µM |  |  | 0.677 µM
C=CC(=O)N1C[C@H](C)N(c2nc(=O)n(-c3c(C(C)C)cncc3C(C)C)c3nc(-c4ccccc4F)c(Cl)cc23)C[C@H]1C [Example 103-4, 6-Chloro-1-(3,5-diisopropyl-4-pyridyl)-4-[(2S,5R)-2,5-dimethyl-4-prop-2-enoyl-piperazin-1-yl]-7-(2-fluorophenyl) pyrido[2,3-d]pyrimidin-2-one] | 0.062 µM | > 7.5 µM | 0.057 µM |  | 
C=CC(=O)N1C[C@H](C)N(c2nc(=O)n(-c3c(N(CC)CC)ccnc3C(C)C)c3nc(-c4ccccc4C(C)C)c(Cl)cc23)C[C@H]1C [Example 103-5, 6-Chloro-1-[4-(diethylamino)-2-isopropyl-3-pyridyl]-4-[(2S,5R)-2,5-dimethyl-4-prop-2-enoyl-piperazin-1-yl]-7-(2-isopropylphenyl) pyrido[2,3-d]pyrimidin-2-one] | 0.507 µM | > 7.5 µM | 0.2 µM |  | 
C=CC(=O)N1C[C@H](C)N(c2nc(=O)n(-c3c(N(CC)CC)ccnc3C(C)C)c3nc(-c4ccccc4C)c(Cl)cc23)C[C@H]1C [Example 103-6, 6-chloro-1-[4-(diethylamino)-2-isopropyl-3-pyridyl]-4-[(2S,5R)-2,5-dimethyl-4-prop-2-enoyl-piperazin-1-yl]-7-(o-tolyl)pyrido[2,3 d]pyrimidin-2-one] | 0.474 µM | > 7.5 µM | 0.08 µM |  | 
C=CC(=O)N1C[C@H](C)N(c2nc(=O)n(-c3c(N(C)C)ccnc3C(C)C)c3nc(-c4ccccc4C)c(Cl)cc23)C[C@H]1C [Example 103-7, 6-Chloro-1-[4-(dimethylamino)-2-isopropyl-3-pvridyl]-4-[(2S,5R)-2,5-dimethyl-4-prop-2-enoyl-piperazin-1-yl]-7-(o-tolyl)pyrido[2,3-d]pyrimidin-2-one] |  | 3.75 µM | 0.143 µM | 0.128 µM | 
C=CC(=O)N1C[C@H](C)N(c2nc(=O)n(-c3c(C(C)C)nc(Br)nc3C(C)C)c3nc(-c4ccccc4F)c(Cl)cc23)C[C@H]1C [Example 106-1, 4-((2S,5R)-4-Acryloyl-2,5-dimethylpiperazin-1-yl)-1-(2-bromo-4,6-diisopropylpyrimidin-5-yl)-6-chloro-7-(2-fluorophenyl)pyrido[2,3-d]pyrimidin-2(1H)-one] | 0.096 µM | 4.54 µM | 0.08 µM |  | 
C=CC(=O)N1CCN(c2nc(=O)n(CC(C)(C)C)c3nc(-c4ccccc4F)c(Cl)cc23)[C@@H](C)C1 [Example 106-2, 6-Chloro-1-(2,2-dimethylpropyl)-7-(2-fluorophenyl)-4-[(2S)-2-methyl-4-prop-2-enoyl-piperazin-1-yl]pyrido[2,3-d]pyrimidin-2-one] | 5.31 µM | > 7.5 µM | 1.01 µM |  | 
C=CC(=O)N1CCN(c2nc(=O)n(CC(C)(C)C)c3nc(-c4ccccc4F)c(Cl)cc23)C[C@@H]1CO [Example 106-3, 6-Chloro-1-(2,2-dimethylpropyl)-7-(2-fluorophenyl)-4-[(3R)-3-(hydroxymethyl)-4-prop-2-enoyl-piperazin-1-yl]pyrido[2,3-d]pyrimidin-2-one] | 10 µM | > 7.5 µM | 8.34 µM |  | 
C=CC(=O)N1C[C@H](C)N(c2nc(=O)n(CC(C)(C)OC)c3nc(-c4ccccc4F)c(Cl)cc23)C[C@H]1C [Example 106-4, 6-Chloro-4-[(2S,5R)-2,5-dimethyl-4-prop-2-enoyl-piperazin-1-yl]-7-(2-fluorophenyl)-1-(2-methoxy-2-methyl-propyl)pyrido[2,3-d]pyrimidin-2-one] | 2.45 µM | > 7.5 µM | 5.04 µM |  | 
C=CC(=O)N1CCN(c2nc(=O)n(CC(C)(C)OC)c3nc(-c4ccccc4F)c(Cl)cc23)CC1 [Example 106-5, 6-Chloro-7-(2-fluorophenyl)-1-(2-methoxy-2-methyl-propyl)-4-(4-prop-2-enoylpiperazin-1-yl)pyrido[2,3-d]pyrimidin-2-one] | 1.46 µM | > 7.5 µM | 6.13 µM |  | 
C=CC(=O)N1C[C@@H](C)N(c2nc(=O)n(-c3c(C)ccnc3C(C)C)c3nc(-c4ccccc4F)c(Cl)nc23)[C@@H](C)C1 [Example 106-7-2, 6-Chloro-4-[(2R,6S)-2,6-dimethyl-4-prop-2-enoyl-piperazin-1-yl]-7-(2-fluorophenyl)-1-(2-isopropyl-4-methyl-3-pyridyl)pteridin-2-one] | 0.271 µM | > 7.5 µM | 0.129 µM |  | 
C=CC(=O)N1C[C@H](C)N(c2nc(=O)n(CC(C)(C)C#N)c3nc(-c4ccccc4F)c(Cl)cc23)C[C@H]1C [Example 106-8, 3-[6-Chloro-4-[(2S,5R)-2,5-dimethyl-4-prop-2-enoyl-piperazin-1-yl]-7-(2-fluorophenyl)-2-oxo-pyrido[2,3-d]pyrimidin-1-yl]-2,2-dimethyl-propanenitrile] | 1.88 µM | > 7.5 µM | 3.35 µM |  | 
C=CC(=O)N1CCN(c2nc(=O)n(CC(C)(C)C#N)c3nc(-c4ccccc4F)c(Cl)cc23)[C@@H](C)C1 [Example 106-9, 3-[6-Chloro-7-(2-fluorophenyl)-4-[(2S)-2-methyl-4-prop-2-enoyl-piperazin-1-yl]-2-oxo-pyrido[2,3-d]pyrimidin-1-yl]-2,2-dimethyl-propanenitrile] | 2.24 µM | > 7.5 µM | 3.7 µM |  | 
C=CC(=O)N1C[C@H](C)N(c2nc(=O)n(-c3c(C(C)C)nc(NC)nc3C(C)C)c3nc(-c4ccccc4F)c(Cl)cc23)C[C@H]1C [Example 107-1, 4-((2S,5R)-4-Acryloyl-2,5-dimethylpiperazin-1-yl)-6-chloro-1-(4,6-diisopropyl-2-(methylamino)pyrimidin-5-yl)-7-(2-fluorophenyl)pyrido[2,3-d]pyrimidin-2(1H)-one] | 0.064 µM | 5.57 µM | 0.026 µM |  | 
C=CC(=O)N1C[C@H](C)N(c2nc(=O)n(-c3c(C(C)C)nc(N(C)C)nc3C(C)C)c3nc(-c4ccccc4F)c(Cl)cc23)C[C@H]1C [Example 107-2, 6-Chloro-1-[2-(dimethylamino)-4,6-diisopropyl-pyrimidin-5-yl]-4-[(2S,5R)-2,5-dimethyl-4-prop-2-enoyl-piperazin-1-yl]-7-(2-fluorophenyl)pyrido [2,3-d]pyrimidin-2-one] | 0.299 µM | 1.25 µM | 0.098 µM |  | 
